In PubChem BioAssay (NCI):
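Protocol summary: plate cells (96-well), add compound at 5 concentrations, incubate 48 h, interpolate endpoints linearly. GI50 marks 50% less growth. At the TGI there is no net growth.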 Where a SMILES comes first, the peptide text is derived from it. [ ]: non-standard residue; d: D form. 2Nal = N[CH](Cc1ccc2ccccc2c1)C(=O)O

Legend:
Assay in all cases: DTP human tumour cell line panel, 48 h
CCRF-CEM leukemia = test system: CCRF-CEM leukemia
HCC-2998 colon = test system: HCC-2998 colon
HCT-15 colon = test system: HCT-15 colon
HL-60(TB) leukemia = test system: HL-60(TB) leukemia
HT29 colon = test system: HT29 colon
M14 melanoma = test system: M14 melanoma
OVCAR-4 ovarian = test system: OVCAR-4 ovarian
SN12C renal = test system: SN12C renal
K-562 leukemia = test system: K-562 leukemia
HOP-92 NSCLC = test system: HOP-92 NSCLC

Compound: O=C1[C@H](Cl)[C@H]2c3cc4ccccc4nc3Oc3ccccc3N12
- TGI (CCRF-CEM leukemia): > 100 µM
- TGI (HCC-2998 colon): > 100 µM
- TGI (HCT-15 colon): > 100 µM
- TGI (HL-60(TB) leukemia): > 100 µM
- TGI (HT29 colon): > 100 µM
- TGI (M14 melanoma): > 100 µM
- TGI (OVCAR-4 ovarian): > 100 µM
- TGI (SN12C renal): > 100 µM

Compound: CC(C)C(NC(=O)C(CCCCN)NC(=O)C(Cc1c[nH]c2ccccc12)NC(=O)C(Cc1ccc(O)cc1)NC(=O)C(CS)NC(=O)C(N)Cc1ccc2ccccc2c1)C(=O)NC(CS)C(=O)NC(C(N)=O)C(C)O (stereo unspecified) (H-[2Nal]CYWKVCT-NH2; configuration not given here)
- GI50 (CCRF-CEM leukemia): > 100 µM
- TGI (CCRF-CEM leukemia): > 100 µM
- GI50 (HCC-2998 colon): > 100 µM
- TGI (HCC-2998 colon): > 100 µM
- GI50 (HCT-15 colon): > 100 µM
- TGI (HCT-15 colon): > 100 µM
- GI50 (HL-60(TB) leukemia): > 100 µM
- TGI (HL-60(TB) leukemia): > 100 µM
- GI50 (HT29 colon): > 100 µM
- TGI (HT29 colon): > 100 µM
- GI50 (K-562 leukemia): > 100 µM
- TGI (K-562 leukemia): > 100 µM
- GI50 (M14 melanoma): > 100 µM
- TGI (M14 melanoma): > 100 µM
- GI50 (OVCAR-4 ovarian): > 100 µM
- TGI (OVCAR-4 ovarian): > 100 µM
- GI50 (SN12C renal): > 100 µM
- TGI (SN12C renal): > 100 µM

Compound: CC(CCCC1SCC2NC(=O)NC21)C(=O)O (stereo unspecified)
- TGI (HCT-15 colon): > 100 µM
- TGI (HL-60(TB) leukemia): > 100 µM
- TGI (HOP-92 NSCLC): > 100 µM
- TGI (HT29 colon): > 100 µM
- TGI (K-562 leukemia): > 100 µM
- TGI (M14 melanoma): > 100 µM
- TGI (OVCAR-4 ovarian): > 100 µM
- TGI (SN12C renal): > 100 µM

Compound: CC(C)CCC(=O)[C@@H](C)[C@H]1[C@@H](OC2OCC(O)C(O)C2NS(C)(=O)=O)C[C@H]2[C@@H]3CC=C4C[C@@H](O)CC[C@]4(C)[C@H]3CC[C@]12C (stereo partly specified)
- GI50 (CCRF-CEM leukemia): 0.424 µM
- TGI (CCRF-CEM leukemia): 2.47 µM
- GI50 (HCC-2998 colon): 5.04 µM
- TGI (HCC-2998 colon): 11.7 µM
- GI50 (HCT-15 colon): 2.23 µM
- TGI (HCT-15 colon): 9.44 µM
- GI50 (HOP-92 NSCLC): 3.02 µM
- TGI (HOP-92 NSCLC): 10.6 µM
- GI50 (HT29 colon): 3.02 µM
- TGI (HT29 colon): 12.5 µM
- GI50 (K-562 leukemia): 1.37 µM
- TGI (K-562 leukemia): 5.55 µM
- GI50 (M14 melanoma): 0.512 µM
- TGI (M14 melanoma): 1.58 µM
- GI50 (OVCAR-4 ovarian): 5.12 µM
- TGI (OVCAR-4 ovarian): 28.6 µM
- GI50 (SN12C renal): 8.36 µM
- TGI (SN12C renal): > 40 µM

Compound: CCCCCCCCCCCCCC(=O)OCC1OC(n2cc(F)c(=O)[nH]c2=O)C(N)C(OC(=O)CCCCCCCCCCCCC)C1O (stereo unspecified)
- TGI (HCC-2998 colon): > 100 µM
- TGI (HCT-15 colon): > 100 µM
- TGI (HL-60(TB) leukemia): > 100 µM
- TGI (HOP-92 NSCLC): > 100 µM
- TGI (HT29 colon): > 100 µM
- TGI (K-562 leukemia): > 100 µM
- TGI (M14 melanoma): > 100 µM
- TGI (OVCAR-4 ovarian): > 100 µM
- TGI (SN12C renal): > 100 µM

Compound: COc1cc(/C=C\c2ccc(OC(C)=O)cc2)cc(OC)c1OC
- TGI (CCRF-CEM leukemia): > 100 µM
- TGI (HCC-2998 colon): > 100 µM
- TGI (HOP-92 NSCLC): > 100 µM
- TGI (HT29 colon): > 100 µM
- TGI (K-562 leukemia): > 100 µM
- TGI (M14 melanoma): > 100 µM
- TGI (OVCAR-4 ovarian): > 100 µM
- TGI (SN12C renal): > 100 µM

Compound: O=C(O)CCSC(=O)Nc1ccccc1Cl
- TGI (CCRF-CEM leukemia): > 100 µM
- TGI (HCC-2998 colon): > 100 µM
- TGI (HCT-15 colon): > 100 µM
- TGI (HOP-92 NSCLC): > 100 µM
- TGI (HT29 colon): > 100 µM
- TGI (K-562 leukemia): > 100 µM
- TGI (M14 melanoma): > 100 µM
- TGI (OVCAR-4 ovarian): > 100 µM
- TGI (SN12C renal): > 100 µM

Compound: COC(=O)C1=C(C(=O)OC)C2OC1c1cc3ccccc3cc12
- TGI (CCRF-CEM leukemia): > 100 µM
- TGI (HCC-2998 colon): 23.4 µM
- TGI (HCT-15 colon): 8.09 µM
- TGI (HL-60(TB) leukemia): 2.22 µM
- TGI (HOP-92 NSCLC): 6.34 µM
- TGI (HT29 colon): 20.4 µM
- TGI (M14 melanoma): 4.83 µM
- TGI (SN12C renal): 30.8 µM

Compound: COc1ccc2c(c1)N(CCO)C1=C(C(=O)OC1)C2c1ccccc1 (stereo unspecified)
- GI50 (CCRF-CEM leukemia): 1.91 µM
- TGI (CCRF-CEM leukemia): > 50 µM
- GI50 (HCC-2998 colon): 3.21 µM
- TGI (HCC-2998 colon): > 50 µM
- GI50 (HCT-15 colon): 1.94 µM
- TGI (HCT-15 colon): > 50 µM
- GI50 (HL-60(TB) leukemia): 1.15 µM
- TGI (HL-60(TB) leukemia): 2.84 µM
- GI50 (HT29 colon): 1.77 µM
- TGI (HT29 colon): 5.73 µM
- GI50 (K-562 leukemia): 1.23 µM
- TGI (K-562 leukemia): > 50 µM
- GI50 (M14 melanoma): 1.4 µM
- TGI (M14 melanoma): 4.65 µM
- GI50 (OVCAR-4 ovarian): 3.69 µM
- TGI (OVCAR-4 ovarian): > 50 µM
- GI50 (SN12C renal): 3.7 µM
- TGI (SN12C renal): > 50 µM

Compound: COc1ccc2c(c1)C(=O)c1c-2n(CCCN)c(=O)c2cc(OC)c(OC)cc12
- GI50 (CCRF-CEM leukemia): < 0.01 µM
- GI50 (HCC-2998 colon): 0.109 µM
- TGI (HCC-2998 colon): 0.294 µM
- GI50 (HCT-15 colon): 0.229 µM
- TGI (HCT-15 colon): 1.18 µM
- GI50 (HL-60(TB) leukemia): < 0.0245 µM
- GI50 (HOP-92 NSCLC): 0.424 µM
- TGI (HOP-92 NSCLC): 2.34 µM
- GI50 (HT29 colon): 0.0684 µM
- TGI (HT29 colon): 0.214 µM
- GI50 (SN12C renal): 0.112 µM
- TGI (SN12C renal): 1.51 µM

Compound: COc1ccc(/C=c2/sc3n(c2=O)NC(c2ccc(Cl)cc2)NN=3)cc1 (stereo unspecified)
- TGI (CCRF-CEM leukemia): > 100 µM
- TGI (HCC-2998 colon): > 100 µM
- TGI (HOP-92 NSCLC): > 100 µM
- TGI (HT29 colon): > 100 µM
- TGI (K-562 leukemia): > 100 µM
- TGI (M14 melanoma): > 100 µM
- TGI (OVCAR-4 ovarian): > 100 µM
- TGI (SN12C renal): > 100 µM

Compound: O=C(Nc1cccc(Cl)c1)c1cc(N=Nc2ccc([N+](=O)[O-])cc2Cl)ccc1O
- GI50 (CCRF-CEM leukemia): 2.16 µM
- TGI (CCRF-CEM leukemia): 5.81 µM
- GI50 (HCC-2998 colon): 1.95 µM
- TGI (HCC-2998 colon): 5.53 µM
- GI50 (HCT-15 colon): 1.89 µM
- TGI (HCT-15 colon): 5.85 µM
- GI50 (HOP-92 NSCLC): 1.24 µM
- TGI (HOP-92 NSCLC): 4.12 µM
- GI50 (HT29 colon): 2.83 µM
- TGI (HT29 colon): 9.5 µM
- GI50 (K-562 leukemia): 1.95 µM
- TGI (K-562 leukemia): 4.72 µM
- GI50 (M14 melanoma): 3.18 µM
- TGI (M14 melanoma): 12.1 µM
- GI50 (OVCAR-4 ovarian): 2.67 µM
- TGI (OVCAR-4 ovarian): > 100 µM
- GI50 (SN12C renal): 2.86 µM
- TGI (SN12C renal): 8.87 µM

Compound: COc1ccc(CNc2cnc3cc(N)cc(N)c3n2)cc1
- GI50 (CCRF-CEM leukemia): 24.1 µM
- TGI (CCRF-CEM leukemia): > 100 µM
- GI50 (HCC-2998 colon): 14.3 µM
- TGI (HCC-2998 colon): 28 µM
- GI50 (HCT-15 colon): 24.6 µM
- TGI (HCT-15 colon): 68.6 µM
- GI50 (HOP-92 NSCLC): 24.1 µM
- TGI (HOP-92 NSCLC): 54.3 µM
- GI50 (HT29 colon): 42 µM
- TGI (HT29 colon): > 100 µM
- GI50 (K-562 leukemia): 10.7 µM
- TGI (K-562 leukemia): 29.3 µM
- GI50 (M14 melanoma): 20.5 µM
- TGI (M14 melanoma): 43.9 µM
- GI50 (OVCAR-4 ovarian): 64.5 µM
- TGI (OVCAR-4 ovarian): > 100 µM
- GI50 (SN12C renal): 18.4 µM
- TGI (SN12C renal): 32.9 µM

Compound: C#CCN(N=O)C(=O)NCCCC(NC(C)=O)C(=O)NCc1ccccc1 (stereo unspecified)
- TGI (CCRF-CEM leukemia): 70.3 µM
- TGI (HCC-2998 colon): > 100 µM
- TGI (HCT-15 colon): > 100 µM
- TGI (HOP-92 NSCLC): > 100 µM
- TGI (HT29 colon): > 100 µM
- TGI (K-562 leukemia): > 100 µM
- TGI (M14 melanoma): > 100 µM
- TGI (OVCAR-4 ovarian): > 100 µM
- TGI (SN12C renal): > 100 µM

Compound: CC[C@]12C=CCN3CC[C@@]4(c5ccc(OC)cc5N(C)[C@H]4[C@@](O)(C(=O)OC)[C@@H]1OC(=O)CCC(=O)N[C@H](Cc1c[nH]c4ccccc14)C(=O)OC)[C@@H]32
- GI50 (CCRF-CEM leukemia): 3.34 µM
- TGI (CCRF-CEM leukemia): > 100 µM
- GI50 (HCC-2998 colon): 6.01 µM
- TGI (HCC-2998 colon): 37.9 µM
- GI50 (HCT-15 colon): 3.51 µM
- TGI (HCT-15 colon): 16.7 µM
- GI50 (HOP-92 NSCLC): 4.02 µM
- TGI (HOP-92 NSCLC): 24.4 µM
- GI50 (HT29 colon): 3.11 µM
- TGI (HT29 colon): 14.4 µM
- GI50 (K-562 leukemia): 3.56 µM
- TGI (K-562 leukemia): > 100 µM
- GI50 (M14 melanoma): 4.06 µM
- TGI (M14 melanoma): > 100 µM
- GI50 (OVCAR-4 ovarian): 6.5 µM
- TGI (OVCAR-4 ovarian): 28.4 µM
- GI50 (SN12C renal): 3.68 µM
- TGI (SN12C renal): 23.9 µM

Compound: CC(=O)C1CCC2C3CC=C4CC(SC(=N)N)CCC4(C)C3CCC12C (stereo unspecified)
- GI50 (CCRF-CEM leukemia): 1.79 µM
- TGI (CCRF-CEM leukemia): 4.26 µM
- GI50 (HL-60(TB) leukemia): 1.88 µM
- TGI (HL-60(TB) leukemia): 4.19 µM
- GI50 (HT29 colon): 0.809 µM
- TGI (HT29 colon): 2.14 µM
- GI50 (M14 melanoma): 1.46 µM
- TGI (M14 melanoma): 2.81 µM
- GI50 (OVCAR-4 ovarian): 1.85 µM
- TGI (OVCAR-4 ovarian): 4.8 µM

Compound: N#Cc1cc(NC(=O)c2ccccc2)c(=O)n2c1[nH]c1ccccc12
- TGI (CCRF-CEM leukemia): > 100 µM
- TGI (HCC-2998 colon): > 100 µM
- TGI (HCT-15 colon): > 100 µM
- TGI (HL-60(TB) leukemia): 74.6 µM
- TGI (HT29 colon): > 100 µM
- TGI (K-562 leukemia): > 100 µM
- TGI (M14 melanoma): 76.9 µM
- TGI (OVCAR-4 ovarian): > 100 µM
- TGI (SN12C renal): > 100 µM
